In patent US20170238571A1, “A SYNERGISTIC COMPOSITION COMPRISING A MIXTURE OF BACTERIA OF THE GENERA LACTOBACILLUS AND PROPIONOBACTERIUM PARTICULARLY USEFUL TO REDUCE OR ELIMINATE PATHOGEN CONTAMINATION IN SOYBEN MEAL AND ITS DERIVATIVES; METHODS AND USES THEREOF” (Molinos Río de la Plata S.A., priority 2014, published 2017):

Assays:
[1] = tested on: Salmonella (S. typhimurium, S. enteritidis, S. heidelberg); assay: Salmonella elimination in contaminated soybean meal: independent ferments vs. mixes (synergistic effect); assay type: cell-based; details: 25° C. - 12% DBM; for Average (n = 3): Salmonella count; for LOG10 (CFU/g) / Reduction %: Salmonella
Procedure: (§1) In order to assess the effectiveness of the mix of the invention in the matrix of interest, an appropriate working protocol was prepared. Initially, 500 g of soybean meal were infected with 50 mL of Salmonella solution whose composition was: 10^6 CFUS. typhimurium/mL, 10^6 CFUS. enteritidis /mLand 10^6 CFUS. heidelberg /mL in equal amounts. […] 50 g of the wet meal obtained (≈25% moisture content on dry basis) were mixed within the dry meal (≈10% moisture content dry basis) and were stirred for 10 minutes. […] Daily determinations of Salmonella colony forming units were performed on this contaminated meal. To this end, 40.5 g of BPW to 4.5 g of the resulting meal were added and vigorously stirred, and then 100μL of this solution, were plated onto Salmonella-Shigella agar (SS Agar). When microorganisms were used in the protecting mixes, concentrations were carefully balanced, and the amount of bacteria added was always the same.
(§2) In the cases in which solutions with ferments were used for protection purposes, cell concentration was of about 10^8 CFU/mL.
Using the protocol described above, the effects caused by the individual strains were assessed and then compared with the effect obtained after mixing them together. […] In order to come closer to the actual values, whenever a ND value was obtained using the methodology described above, a new dilution factor was applied; each time by adding only 18 g of buffer (stirring thoroughly and then spinning), and 200 μL of this solution were plated for recounting. […] This new protocol was only used to determine the effect of the different mixes. In turn, the results obtained herein are shown using the following formula: […]
Thus, the percentage of Salmonella elimination in meal was calculated for different mixes, as well as for each ferment individually.

[2] = tested on: Salmonella (S. typhimurium, S. enteritidis, S. heidelberg); assay: Effectiveness of mixes against Salmonella in soybean meal with 8% DBM; assay type: cell-based; details: 25° C. - 8% DBM; for Average (n = 3): Salmonella count; for LOG10 (CFU/g): Salmonella
Procedure: as §1, §2
After oil is stripped from the soybean flakes during the extraction process, the latter goes through a desolventizer to evaporate the residual hexane remaining after extraction. This process adds moisture to the flakes, since desolventizing is a process that uses steam. Once the soybean flake is desolventized, it is dried to obtain the desired moisture level. The moisture content assessed on a dry basis of a typical meal product is around 11-12% DBM; however, at present we can find meals on the market with a moisture content ranging from 8-13% DBM. The effectiveness of the mix of the invention was tested in meals with different moisture contents.

[3] = 0 days, first series (0-6 days)
[4] = 0 days, second series (0-3 days)
[5] = 1 day, second series (0-3 days)
[6] = 2 days, first series (0-6 days)
[7] = 2 days, second series (0-3 days)
[8] = 3 days, first series (0-6 days)
[9] = 3 days, second series (0-3 days)
[10] = 4 days, first series (0-6 days)
[11] = 5 days, first series (0-6 days)
[12] = 6 days, first series (0-6 days)

## CCC(=O)O [Propionic Acid]
[1]; [3]
  Average (n = 3): 199.67
  LOG10 (CFU/g): 3.65 LOG10 (CFU/g)
  Reduction %: 0.00%
[1]; [4]
  Average (n = 3): 199.67
  LOG10 (CFU/g): 3.65 LOG10 (CFU/g)
  Reduction %: 0.00%
[1]; 1 day, first series (0-6 days)
  Average (n = 3): 145
  LOG10 (CFU/g): 3.51 LOG10 (CFU/g)
  Reduction %: 3.81%
[1]; [5]
  Average (n = 3): 145
  LOG10 (CFU/g): 3.51 LOG10 (CFU/g)
  Reduction %: 3.81%
[1]; [6]
  Average (n = 3): 110
  LOG10 (CFU/g): 3.39 LOG10 (CFU/g)
  Reduction %: 7.10%
[1]; [7]
  Average (n = 3): 110
  LOG10 (CFU/g): 3.39 LOG10 (CFU/g)
  Reduction %: 7.10%
[1]; [8]
  Average (n = 3): 90
  LOG10 (CFU/g): 3.30 LOG10 (CFU/g)
  Reduction %: 9.49%
[1]; [9]
  Average (n = 3): 90
  LOG10 (CFU/g): 3.30 LOG10 (CFU/g)
  Reduction %: 9.49%
[1]; [10]
  Average (n = 3): 60.67
  LOG10 (CFU/g): 3.13 LOG10 (CFU/g)
  Reduction %: 14.22%
[1]; [11]
  Average (n = 3): 57
  LOG10 (CFU/g): 3.10 LOG10 (CFU/g)
  Reduction %: 14.93%
[1]; [12]
  Average (n = 3): 38.33
  LOG10 (CFU/g): 2.93 LOG10 (CFU/g)
  Reduction %: 19.76%
[2]; 0 hours
  Average (n = 3): 199.67
  LOG10 (CFU/g): 3.65 LOG10 (CFU/g)
[2]; 12 hours
  Average (n = 3): 175
  LOG10 (CFU/g): 3.59 LOG10 (CFU/g)
[2]; 24 hours
  Average (n = 3): 130
  LOG10 (CFU/g): 3.46 LOG10 (CFU/g)
[2]; 36 hours
  Average (n = 3): 100.33
  LOG10 (CFU/g): 3.35 LOG10 (CFU/g)
[2]; 48 hours
  Average (n = 3): 90.67
  LOG10 (CFU/g): 3.30 LOG10 (CFU/g)
[2]; 60 hours
  Average (n = 3): 77
  LOG10 (CFU/g): 3.23 LOG10 (CFU/g)
[2]; 72 hours
  Average (n = 3): 58
  LOG10 (CFU/g): 3.11 LOG10 (CFU/g)
[2]; 84 hours
  Average (n = 3): 32.33
  LOG10 (CFU/g): 2.85 LOG10 (CFU/g)
[2]; 96 hours
  Average (n = 3): 15
  LOG10 (CFU/g): 2.52 LOG10 (CFU/g)
